This is an account of results in ChEMBL document CHEMBL4308873, “Synthesis and biological evaluation of Ginsenoside Compound K analogues as a novel class of anti-asthmatic agents” (2019).

Holding throughout (format): functional
For test [1], the system named is Mus musculus. The test can be described thus: Anti-asthmatic activity in ovalbumin-induced asthmatic BALB/c mouse model assessed as 12.5 mg/ml methacholine-induced airway resistance at 20 mg/kg, po co-administered with ovalbumin from day 21 to 28 of experiment period measured post last dose by plethysmography (reference value: 6.03 +/- 1.02 cmH2O/ml).
For test [2], the system named is Mus musculus. The test can be described thus: Anti-asthmatic activity in ovalbumin-induced asthmatic BALB/c mouse model assessed as IgE level in plasma at 20 mg/kg, po co-administered with ovalbumin from day 21 to 28 of experiment period by ELISA (reference value: 2544.05 +/- 229.07 ng/ml). A general note: ELISA stands for enzyme-linked immunosorbent assay.
Test [3] deals with Mus musculus. The test can be described thus: Anti-asthmatic activity in ovalbumin-induced asthmatic BALB/c mouse model assessed as 100 mg/ml methacholine-induced airway resistance at 20 mg/kg, po co-administered with ovalbumin from day 21 to 28 of experiment period measured post last dose by plethysmography (reference value: 84.5 +/- 2.41 cmH2O/ml).
Test [4] concerns Mus musculus. The test can be described thus: Anti-asthmatic activity in ovalbumin-induced asthmatic BALB/c mouse model assessed as 25 mg/ml methacholine-induced airway resistance at 20 mg/kg, po co-administered with ovalbumin from day 21 to 28 of experiment period measured post last dose by plethysmography (reference value: 14.03 +/- 1.15 cmH2O/ml).
In test [5] the test system is Mus musculus. The test can be described thus: Anti-asthmatic activity in ovalbumin-induced asthmatic BALB/c mouse model assessed as 50 mg/ml methacholine-induced airway resistance at 20 mg/kg, po co-administered with ovalbumin from day 21 to 28 of experiment period measured post last dose by plethysmography (reference value: 64.33 +/- 3.41 cmH2O/ml).
Test [6] relates to Mus musculus. The test can be described thus: Anti-asthmatic activity in ovalbumin-induced asthmatic BALB/c mouse model assessed as 6.25 mg/ml methacholine-induced airway resistance at 20 mg/kg, po co-administered with ovalbumin from day 21 to 28 of experiment period measured post last dose by plethysmography (reference value: 2.44 +/- 0.87 cmH2O/ml).
The subject of test [7] is Mus musculus. The test can be described thus: Anti-asthmatic activity in ovalbumin-induced asthmatic BALB/c mouse model assessed as 100 mg/ml methacholine-induced airway resistance at 0.6 mg/kg, po co-administered with ovalbumin from day 21 to 28 of experiment period measured post last dose by plethysmography (reference value: 84.5 +/- 2.41 cmH2O/ml).
Test [8] concerns Mus musculus. The test can be described thus: Anti-asthmatic activity in ovalbumin-induced asthmatic BALB/c mouse model assessed as 50 mg/ml methacholine-induced airway resistance at 0.6 mg/kg, po co-administered with ovalbumin from day 21 to 28 of experiment period measured post last dose by plethysmography (reference value: 64.33 +/- 3.41 cmH2O/ml).
For test [9], the system named is Mus musculus. The test can be described thus: Anti-asthmatic activity in ovalbumin-induced asthmatic BALB/c mouse model assessed as 6.25 mg/ml methacholine-induced airway resistance at 0.6 mg/kg, po co-administered with ovalbumin from day 21 to 28 of experiment period measured post last dose by plethysmography (reference value: 2.44 +/- 0.87 cmH2O/ml).
Test [10] relates to Mus musculus. The test can be described thus: Anti-asthmatic activity in ovalbumin-induced asthmatic BALB/c mouse model assessed as IgE level in plasma at 0.6 mg/kg, po co-administered with ovalbumin from day 21 to 28 of experiment period by ELISA (reference value: 2544.05 +/- 229.07 ng/ml).
Test [11] has as its system Mus musculus. The test can be described thus: Anti-asthmatic activity in ovalbumin-induced asthmatic BALB/c mouse model assessed as 25 mg/ml methacholine-induced airway resistance at 0.6 mg/kg, po co-administered with ovalbumin from day 21 to 28 of experiment period measured post last dose by plethysmography (reference value: 14.03 +/- 1.15 cmH2O/ml).
Test [12] concerns Mus musculus. The test can be described thus: Anti-asthmatic activity in ovalbumin-induced asthmatic BALB/c mouse model assessed as 12.5 mg/ml methacholine-induced airway resistance at 0.6 mg/kg, po co-administered with ovalbumin from day 21 to 28 of experiment period measured post last dose by plethysmography (reference value: 6.03 +/- 1.02 cmH2O/ml).

Each structure is given as a SMILES string.

As to `CC(C)=CCC[C@](C)(O[C@@H]1O[C@H](CO)[C@@H](O)[C@H](O)[C@H]1O)[C@H]1CC[C@]2(C)[C@@H]1[C@H](O)C[C@@H]1[C@@]3(C)CC[C@H](O)C(C)(C)[C@@H]3CC[C@]12C`, the Activity worked out at 4.14 cmH2O/ml in the test with Mus musculus [1]; 1501.85 ng/mL in the test on Mus musculus [2]; 6.21 cmH2O/ml in the test with Mus musculus [3]; 4.79 cmH2O/ml in the test with Mus musculus [4]; 5.04 cmH2O/ml in the test on Mus musculus [5]; 2.47 cmH2O/ml in the test on Mus musculus [6].

As to `CC(C)=CCC[C@](C)(O[C@H]1O[C@@H](C)[C@H](O)[C@@H](O)[C@H]1O)[C@H]1CC[C@]2(C)[C@@H]1C(=O)C[C@@H]1[C@@]3(C)CC[C@H](O)C(C)(C)[C@@H]3CC[C@]12C`, the Activity in the test with Mus musculus [2] was 2706.85 ng/mL.

For the compound `CC(C)=CCC[C@](C)(O[C@@H]1O[C@H](CO)[C@H](O)[C@H](O)[C@H]1O)[C@H]1CC[C@]2(C)[C@@H]1C(=O)C[C@@H]1[C@@]3(C)CC[C@H](O)C(C)(C)[C@@H]3CC[C@]12C`, the Activity in the test on Mus musculus [1] was determined as 2.78 cmH2O/ml; in the test with Mus musculus [2] it was 975.82 ng/mL; in the test on Mus musculus [3] it was 6.35 cmH2O/ml; in the test on Mus musculus [4] it was 3.28 cmH2O/ml; in the test on Mus musculus [5], 4.81 cmH2O/ml; in the test with Mus musculus [6], 2.04 cmH2O/ml.

As for `CC(C)=CCC[C@](C)(O[C@@H]1O[C@H](CO)[C@@H](O)[C@H](O)[C@H]1O)[C@H]1CC[C@]2(C)[C@@H]1/C(=N/O)C[C@@H]1[C@@]3(C)CC/C(=N\O)C(C)(C)[C@@H]3CC[C@]12C`, the Activity with Mus musculus [1] worked out at 5.06 cmH2O/ml; in the test with Mus musculus [2], 1258.27 ng/mL; with Mus musculus [3], 5.73 cmH2O/ml; in the test with Mus musculus [4], 5.72 cmH2O/ml; with Mus musculus [5], 4.93 cmH2O/ml; in the test with Mus musculus [6], 3.4 cmH2O/ml.

For `CC(C)(O)CCC[C@](C)(O[C@@H]1O[C@H](CO)[C@@H](O)[C@H](O)[C@H]1O)[C@H]1CC[C@]2(C)[C@@H]1C(=O)C[C@@H]1[C@@]3(C)CC[C@H](O)C(C)(C)[C@@H]3CC[C@]12C`, the Activity in the test with Mus musculus [2] was determined as 2027.95 ng/mL.

On to `CO[C@H]1CC[C@]2(C)[C@H]3CC(=O)[C@@H]4[C@@H]([C@](C)(CCC=C(C)C)O[C@@H]5O[C@H](CO)[C@@H](O)[C@H](O)[C@H]5O)CC[C@@]4(C)[C@]3(C)CC[C@H]2C1(C)C`, for which the Activity in the test on Mus musculus [2] came out at 3593.38 ng/mL.

In the case of `CC(C)=CCC[C@](C)(O[C@@H]1OC[C@@H](O)[C@H](O)[C@H]1O)[C@H]1CC[C@]2(C)[C@@H]1C(=O)C[C@@H]1[C@@]3(C)CC[C@H](O)C(C)(C)[C@@H]3CC[C@]12C`, the Activity in the test on Mus musculus [2] is 2439.3 ng/mL.

Consider `CC(=O)O[C@H]1CC[C@]2(C)[C@H]3CC(=O)[C@@H]4[C@@H]([C@](C)(CCC=C(C)C)O[C@@H]5O[C@H](CO)[C@@H](O)[C@H](O)[C@H]5O)CC[C@@]4(C)[C@]3(C)CC[C@H]2C1(C)C`, for which the Activity in the test on Mus musculus [2] worked out at 3224.5 ng/mL.

Consider `CO/N=C1\CC[C@]2(C)[C@H]3CC(=O)[C@@H]4[C@@H]([C@](C)(CCC=C(C)C)O[C@@H]5O[C@H](CO)[C@@H](O)[C@H](O)[C@H]5O)CC[C@@]4(C)[C@]3(C)CC[C@H]2C1(C)C`, for which the Activity in the test with Mus musculus [2] worked out at 2023.54 ng/mL.

In the case of `CC(C)CCC[C@](C)(O[C@@H]1O[C@H](CO)[C@@H](O)[C@H](O)[C@H]1O)[C@H]1CC[C@]2(C)[C@@H]1C(=O)C[C@@H]1[C@@]3(C)CC[C@H](O)C(C)(C)[C@@H]3CC[C@]12C`, in the test with Mus musculus [2], the Activity was found to be 1976.31 ng/mL.

On to `CC(C)=CCC[C@](C)(O[C@@H]1O[C@H](CO)[C@@H](O)[C@H](O)[C@H]1O)[C@H]1CC[C@]2(C)[C@@H]1C(=O)C[C@@H]1[C@@]3(C)CCC(=O)C(C)(C)[C@@H]3CC[C@]12C`, for which the Activity with Mus musculus [2] was found to be 2439.3 ng/mL.

With `CC(C)=CCC[C@](C)(O[C@@H]1O[C@H](CO)[C@@H](O)[C@H](O)[C@H]1O)[C@H]1CC[C@]2(C)[C@@H]1C(=O)C[C@@H]1[C@@]3(C)CC/C(=N\O)C(C)(C)[C@@H]3CC[C@]12C`, in the test with Mus musculus [2], the Activity turned out to be 1968.31 ng/mL.

For `CC(C)=CCC[C@](C)(O[C@@H]1O[C@H](CO)[C@@H](O)[C@H](O)[C@@H]1O)[C@H]1CC[C@]2(C)[C@@H]1C(=O)C[C@@H]1[C@@]3(C)CC[C@H](O)C(C)(C)[C@@H]3CC[C@]12C`, the Activity was 3.54 cmH2O/ml with Mus musculus [1]; 1136.96 ng/mL in the test with Mus musculus [2]; 5.97 cmH2O/ml in the test with Mus musculus [3]; 3.58 cmH2O/ml with Mus musculus [4]; 4.94 cmH2O/ml in the test on Mus musculus [5]; 2.83 cmH2O/ml in the test with Mus musculus [6].

On to `CC(C)=CCC[C@](C)(O[C@@H]1O[C@H](CO)[C@@H](O)[C@H](O)[C@H]1O)[C@H]1CC[C@]2(C)[C@@H]1C(=O)C[C@@H]1[C@@]3(C)CC=CC(C)(C)[C@@H]3CC[C@]12C`, for which the Activity with Mus musculus [1] worked out at 3.24 cmH2O/ml; in the test on Mus musculus [2], 1191.08 ng/mL; with Mus musculus [3] it was 5.76 cmH2O/ml; in the test with Mus musculus [4], 4.89 cmH2O/ml; in the test with Mus musculus [5] it was 5.61 cmH2O/ml; in the test with Mus musculus [6] it was 2.86 cmH2O/ml.

Turning to `CC(C)=CCC[C@](C)(O[C@@H]1O[C@H](CO)[C@@H](O)[C@H](O)[C@H]1O)[C@H]1CC[C@]2(C)[C@@H]1C(=O)C[C@@H]1[C@@]3(C)CC[C@H](O)C(C)(C)[C@@H]3CC[C@]12C`, the Activity was found to be 3.13 cmH2O/ml in the test on Mus musculus [1]; 1237.11 ng/mL in the test with Mus musculus [2]; 6.79 cmH2O/ml in the test on Mus musculus [3]; 4.65 cmH2O/ml in the test on Mus musculus [4]; 5.9 cmH2O/ml in the test on Mus musculus [5]; 2.18 cmH2O/ml in the test with Mus musculus [6].

Turning to `CC(=O)OCC(=O)[C@@]1(O)[C@H](C)C[C@H]2[C@@H]3CCC4=CC(=O)C=C[C@]4(C)[C@@]3(F)[C@@H](O)C[C@@]21C` [DEXAMETHASONE ACETATE], the Activity in the test on Mus musculus [7] came to 3.06 cmH2O/ml; in the test with Mus musculus [8], 3.04 cmH2O/ml; with Mus musculus [9], 2.89 cmH2O/ml; in the test on Mus musculus [10] it was 1131.05 ng/mL; in the test on Mus musculus [11], 3.36 cmH2O/ml; in the test with Mus musculus [12], 3.09 cmH2O/ml.
